In patent US11267786B2, “[3.3.1] bicyclo compounds as indoleamine 2,3-dioxygenase inhibitors” (Merck Sharp & Dohme Corp., priority 2018, dated 2022):

How the values were obtained:
IDO1 [1] = target: T1, IDO1 (Homo sapiens, UniProt P14902); experiment: IDO1 Cellular Assay in Hela Cells Stimulated with IFNγ; assay type: cell-based; conditions: 100 ng/mL IFNγ, 300 uM L-tryptophan, about 48 hours, fluorescence readout
Protocol: IDO1 Cellular Assay in Hela Cells Stimulated with IFNγ
Hela cells were cultured in complete Hela culture medium (90% EMEM, 10% heat-inactivated fetal bovine serum) and expanded to about 1×10^9 cells. The cells were then collected and frozen down at 1×10^7 cells/vial in 1 mL frozen medium (90% complete Hela culture medium, 10% DMSO)
Compounds to be tested were serially diluted in ten 3-fold steps in DMSO starting from 10 mM DMSO stocks in Echo low volume plate(s). Compound dilutions or DMSO alone were then dispensed from the dilution plate(s) into Greiner black 384-well assay plate(s) (catalog #781086, 50 nL/well) using an Echo 550 acoustic liquid handler (Labcyte).
Frozen Hela cells were thawed and transferred into Hela assay medium (99% complete Hela culture medium, 1% Pen/Strep) with 20 mL medium/vial of cells. The cells were spun down at 250 g in a table top centrifuge for 5 min and suspended in same volume of Hela assay medium. The cells were then counted and adjusted to a density of 2×10^5 cells/ml in Hela assay medium. Sterile L-tryptophan were added to the cells with final concentration of 300 uM L-tryptophan. A small aliquot (2 mL/plate) of Hela cells were set aside and were not treated with IFNγ, to serve as the Max-E control.
Hela cells with and without IFNγ were dispensed to the respective wells of 384-well assay plates containing the compounds. The plates were incubated for about 48 hours at a 37° C., 5% CO2 incubator. Afterwards, 12 μL of 0.5 M methyl isonipecotate in dimethyl sulfoxide were added into each well and the plates were sealed and incubated at 37° C. without CO2 overnight. The plates were centrifuged for 1 min at 200×g. The resulting fluorescence was measured in a Spectramax plate reader (Molecular Devices) with a 400 nm excitation filter and a 510 nm emission filter.
The fluorescence intensity of each well was corrected for the background observed in wells with non-IFNγ-treated cells and was expressed as a fraction of the intensity observed in wells of IFNγ-treated cells and DMSO only. Potencies were calculated by linear least squares fit to the four parameter logistic IC50 equation.

IDO1 [2] = target: T1, IDO1; experiment: IDO1 Human Whole Blood Assay; assay type: cell-based; design: Human whole blood was drawn in sodium heparin coated tubes from healthy internal donors; from tissue; host or cells: human whole blood from healthy donors, stimulated with LPS and IFNγ; conditions: human whole blood stimulated with LPS and IFNγ 100 ng/mL, 18 h, kynurenine by LC/MS/MS
Protocol: IDO1 Human Whole Blood Assay
Compounds to be tested were serially diluted in ten 3-fold steps in DMSO starting from 10 mM. 3 μL of compound dilutions or DMSO alone were then dispensed from the dilution plate into a polypropylene 96-well assay plate containing 97 μL of RPMI medium using an Echo 555 acoustic liquid handler (Labcyte). LPS and IFNγ were prepared in RPMI medium to a 10× of final conc. (1000 ng/mL), final concentration is 100 ng/mL.
Human whole blood was drawn in sodium heparin coated tubes from healthy internal donors. Two hundred forty μL of blood was transferred to each of the wells of a v-bottom 96 well plate. Thirty μL of compound was transferred from intermediate dilution plate, and incubated for 15 min. Thirty μL from stimulants was then transferred to blood and mixed thoroughly. Plate was covered with breathable membrane and incubated at 37° C. for overnight (18 h).
On day 2 isotope labeled standard of kynurenine and tryptophan was made in water at 10× concentration and 30 μL was added to the blood at 3 μM final concentration. […] Twenty μL of supernatant was carefully transferred to a 384 well plate containing 40 μL of 0.1% formic acid in water and analyzed by LC/MS/MS.
LC/MS/MS analyses were performed using Thermo Fisher's LX4-TSQ Quantum Ultra system. […] Compounds were titrated and IC50's were calculated by 4 parameter sigmoidal curve fitting formula.

T1 sequence (P14902 whole entry): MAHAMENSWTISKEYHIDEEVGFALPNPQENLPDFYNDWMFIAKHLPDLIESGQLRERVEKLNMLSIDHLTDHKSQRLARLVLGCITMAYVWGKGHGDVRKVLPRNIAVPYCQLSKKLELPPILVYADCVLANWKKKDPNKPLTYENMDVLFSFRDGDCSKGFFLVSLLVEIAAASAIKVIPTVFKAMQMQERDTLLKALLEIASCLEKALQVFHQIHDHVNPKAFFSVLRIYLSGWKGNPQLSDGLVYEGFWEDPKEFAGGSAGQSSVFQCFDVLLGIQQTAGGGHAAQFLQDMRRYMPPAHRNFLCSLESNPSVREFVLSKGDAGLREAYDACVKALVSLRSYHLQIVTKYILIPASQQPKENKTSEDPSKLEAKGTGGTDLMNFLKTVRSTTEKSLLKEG

| Compound | IC50 (IDO1 [1]) [nM] | IC50 (IDO1 [2]) [nM] |
| --- | --- | --- |
| O=C(Nc1ccc(Cl)cc1)C1CCC2CC1CCC2c1ccnc2ccc(F)cc12 (single isomer, unassigned) [Example 3, N-(4-chlorophenyl)-6-(6-fluoroquinolin-4-yl)bicyclo[3.3.1]nonane-2-carboxamide] | 127 |  |
| O=C(NC1CCC2CC1CCC2c1ccnc2ccc(F)cc12)c1ccc(Cl)cc1 (single isomer, unassigned) [Example 5, 4-Chloro-N-(6-(6-fluoroquinolin-4-yl)bicyclo[3.3.1]nonan-2-yl)benzamide] | 770 |  |
| O=C(NC1CCC2CC1CCC2c1ccnc2ccc(F)cc12)c1ccc(Cl)cc1 (single isomer, unassigned) [Example 6, 4-Chloro-N-(6-(6-fluoroquinolin-4-yl)bicyclo[3.3.1]nonan-2-yl)benzamide] | 1640 |  |
| O=C(NC1CCC2CC1CCC2c1ccnc2ccc(F)cc12)c1ccc(Cl)cc1 (single isomer, unassigned) [Example 7, 4-Chloro-N-(6-(6-fluoroquinolin-4-yl)bicyclo[3.3.1]nonan-2-yl)benzamide] | 25 |  |
| O=C(NC1CCC2CC1CCC2c1ccnc2ccc(F)cc12)c1ccc(Cl)cc1 (single isomer, unassigned) [Example 8, 4-Chloro-N-(6-(6-fluoroquinolin-4-yl)bicyclo[3.3.1]nonan-2-yl)benzamide] | 2500 |  |

The remaining compounds from weak to strong by IC50 (IDO1 [1]), led by results:

| IC50 (IDO1 [1]) [nM] | IC50 (IDO1 [2]) [nM] | Compound |
| --- | --- | --- |
| 2510 |  | O=C(Nc1ccc(Cl)cc1)C1CCC2CC1CCC2c1ccnc2ccc(F)cc12 (single isomer, unassigned) [Example 4, N-(4-chlorophenyl)-6-(6-fluoroquinolin-4-yl)bicyclo[3.3.1]nonane-2-carboxamide] |
| 260 |  | O=C(Nc1ccc(Cl)cc1)C1CCC2CC1CCC2c1ccnc2ccc(F)cc12 (single isomer, unassigned) [Example 2, N-(4-chlorophenyl)-6-(6-fluoroquinolin-4-yl)bicyclo[3.3.1]nonane-2-carboxamide] |
| 2 | 306 | O=C(Nc1ccc(Cl)cc1)C1CCC2CC1CCC2c1ccnc2ccc(F)cc12 (single isomer, unassigned) [Example 1, N-(4-chlorophenyl)-6-(6-fluoroquinolin-4-yl)bicyclo[3.3.1]nonane-2-carboxamide] |
